Data published in patent publication US7964531B2, “3-phenoxy-4-pyridazinol derivatives and herbicidal composition containing the same” (Mitsui Chemicals Agro, Inc., priority 2001, dated 2011).

How the values were obtained:
Format in all cases: in vivo
Settings in all cases: wettable powder applied 3 days after transplanting, judged after 25 days
Cyperus serotinus = assay: Test Example 1: herbicidal effects, paddy-field pot test
How it was run: (§1)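 Paddy soil pots sown with dormancy-broken weed seeds mixed into the top 1 cm, plus germinated Cyperus serotinus tubers and transplanted 2.2-leaf rice seedlings, grown flooded in a greenhouse. Water-diluted wettable powder applied 3 days after transplanting; growth inhibition scored 25 days later on a 0–5 scale (0 = 0–10%, 5 = 91–100%).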

Scirpus joncoides = assay: as above
How it was run: as §1

[1] = tested on: annual broad-leaved weeds (Lindernia spp., Rotala indica); assay: as above
How it was run: as §1

[2] = tested on: barnyardgrass (Echinochloa oryzicola Vasing.); assay: as above
How it was run: as §1

[3] = tested on: transplanted paddy-field rice; assay: Test Example 1: crop injury against transplanted paddy-field rice
How it was run: as §1

Row | Compound | Herbicidal effects Cyperus serotinus (Cyperus serotinus; chemical dosage 10 g/a) | Herbicidal effects Cyperus serotinus (Cyperus serotinus; chemical dosage 20 g/a) | Herbicidal effects Scirpus joncoides (Scirpus joncoides; chemical dosage 10 g/a) | Herbicidal effects Scirpus joncoides (Scirpus joncoides; chemical dosage 20 g/a) | Herbicidal effects Broad leaf ([1]; chemical dosage 10 g/a) | Herbicidal effects Broad leaf ([1]; chemical dosage 20 g/a) | Herbicidal effects Barnyard grass ([2]; chemical dosage 10 g/a) | Herbicidal effects Barnyard grass ([2]; chemical dosage 20 g/a) | Crop injury against transplanted rice ([3]; chemical dosage 10 g/a) | Crop injury against transplanted rice ([3]; chemical dosage 20 g/a) | Herbicidal effects Cyperus serotinus (Cyperus serotinus; chemical dosage 12.5 g/a) | Herbicidal effects Cyperus serotinus (Cyperus serotinus; chemical dosage 25 g/a) | Herbicidal effects Scirpus joncoides (Scirpus joncoides; chemical dosage 12.5 g/a) | Herbicidal effects Scirpus joncoides (Scirpus joncoides; chemical dosage 25 g/a) | Herbicidal effects Broad leaf ([1]; chemical dosage 12.5 g/a) | Herbicidal effects Broad leaf ([1]; chemical dosage 25 g/a) | Herbicidal effects Barnyard grass ([2]; chemical dosage 12.5 g/a) | Herbicidal effects Barnyard grass ([2]; chemical dosage 25 g/a) | Crop injury against transplanted rice ([3]; chemical dosage 12.5 g/a) | Crop injury against transplanted rice ([3]; chemical dosage 25 g/a)
1 | CCc1cccc(C)c1Oc1nnc(Cl)cc1O [Example 260] | 5 (Growth inhibition rate; 91 to 100%) | 5 (Growth inhibition rate; 91 to 100%) | 5 (Growth inhibition rate; 91 to 100%) | 5 (Growth inhibition rate; 91 to 100%) | 5 (Growth inhibition rate; 91 to 100%) | 5 (Growth inhibition rate; 91 to 100%) | 2 (Growth inhibition rate; 31 to 50%) | 3 (Growth inhibition rate; 51 to 70%) | 0 (Growth inhibition rate; 0 to 10%) | 0 (Growth inhibition rate; 0 to 10%) |  |  |  |  |  |  |  |  |  | 
2 | Cc1ccc(C)c(Oc2nnc(Cl)cc2O)c1 [Example 205] |  |  |  |  |  |  |  |  |  |  | 5 (Growth inhibition rate; 91 to 100%) | 5 (Growth inhibition rate; 91 to 100%) | 5 (Growth inhibition rate; 91 to 100%) | 5 (Growth inhibition rate; 91 to 100%) | 5 (Growth inhibition rate; 91 to 100%) | 5 (Growth inhibition rate; 91 to 100%) | 0 (Growth inhibition rate; 0 to 10%) | 1 (Growth inhibition rate; 11 to 30%) | 0 (Growth inhibition rate; 0 to 10%) | 0 (Growth inhibition rate; 0 to 10%)
3 | Cc1ccccc1Oc1nnc(Cl)cc1OS(C)(=O)=O [Example 356] | 5 (Growth inhibition rate; 91 to 100%) | 5 (Growth inhibition rate; 91 to 100%) | 3 (Growth inhibition rate; 51 to 70%) | 5 (Growth inhibition rate; 91 to 100%) | 4 (Growth inhibition rate; 71 to 90%) | 5 (Growth inhibition rate; 91 to 100%) | 2 (Growth inhibition rate; 31 to 50%) | 3 (Growth inhibition rate; 51 to 70%) | 0 (Growth inhibition rate; 0 to 10%) | 0 (Growth inhibition rate; 0 to 10%) |  |  |  |  |  |  |  |  |  | 
4 | Oc1cc(Cl)nnc1Oc1c(Br)cccc1C1CC1 [Example 253] | 5 (Growth inhibition rate; 91 to 100%) | 5 (Growth inhibition rate; 91 to 100%) | 5 (Growth inhibition rate; 91 to 100%) | 5 (Growth inhibition rate; 91 to 100%) | 5 (Growth inhibition rate; 91 to 100%) | 5 (Growth inhibition rate; 91 to 100%) | 3 (Growth inhibition rate; 51 to 70%) | 4 (Growth inhibition rate; 71 to 90%) | 5 (Growth inhibition rate; 91 to 100%) | 5 (Growth inhibition rate; 91 to 100%) |  |  |  |  |  |  |  |  |  | 
5 | Oc1cc(Cl)nnc1Oc1c(C2CC2)ccc2c1CCC2 [Example 307] | 5 (Growth inhibition rate; 91 to 100%) | 5 (Growth inhibition rate; 91 to 100%) | 5 (Growth inhibition rate; 91 to 100%) | 5 (Growth inhibition rate; 91 to 100%) | 5 (Growth inhibition rate; 91 to 100%) | 5 (Growth inhibition rate; 91 to 100%) | 3 (Growth inhibition rate; 51 to 70%) | 4 (Growth inhibition rate; 71 to 90%) | 0 (Growth inhibition rate; 0 to 10%) | 0 (Growth inhibition rate; 0 to 10%) |  |  |  |  |  |  |  |  |  | 
6 | Cc1ccccc1Oc1nnc(Br)cc1O [Example 34] | 5 (Growth inhibition rate; 91 to 100%) | 5 (Growth inhibition rate; 91 to 100%) | 2 (Growth inhibition rate; 31 to 50%) | 4 (Growth inhibition rate; 71 to 90%) | 2 (Growth inhibition rate; 31 to 50%) | 4 (Growth inhibition rate; 71 to 90%) | 1 (Growth inhibition rate; 11 to 30%) | 2 (Growth inhibition rate; 31 to 50%) | 0 (Growth inhibition rate; 0 to 10%) | 0 (Growth inhibition rate; 0 to 10%) |  |  |  |  |  |  |  |  |  | 
7 | Oc1cc(Cl)nnc1Oc1cccc2occc12 [Example 183] | 5 (Growth inhibition rate; 91 to 100%) | 5 (Growth inhibition rate; 91 to 100%) | 5 (Growth inhibition rate; 91 to 100%) | 5 (Growth inhibition rate; 91 to 100%) | 5 (Growth inhibition rate; 91 to 100%) | 5 (Growth inhibition rate; 91 to 100%) | 1 (Growth inhibition rate; 11 to 30%) | 2 (Growth inhibition rate; 31 to 50%) | 0 (Growth inhibition rate; 0 to 10%) | 0 (Growth inhibition rate; 0 to 10%) |  |  |  |  |  |  |  |  |  | 
8 | CC(C)c1ccccc1Oc1nnc(Cl)cc1O [Example 57] |  |  |  |  |  |  |  |  |  |  | 5 (Growth inhibition rate; 91 to 100%) | 5 (Growth inhibition rate; 91 to 100%) | 3 (Growth inhibition rate; 51 to 70%) | 4 (Growth inhibition rate; 71 to 90%) | 5 (Growth inhibition rate; 91 to 100%) | 5 (Growth inhibition rate; 91 to 100%) | 2 (Growth inhibition rate; 31 to 50%) | 2 (Growth inhibition rate; 31 to 50%) | 0 (Growth inhibition rate; 0 to 10%) | 0 (Growth inhibition rate; 0 to 10%)
9 | Cc1ccc(S(=O)(=O)Oc2cc(Cl)nnc2Oc2ccccc2C2CC2)cc1 [Example 27] | 5 (Growth inhibition rate; 91 to 100%) | 5 (Growth inhibition rate; 91 to 100%) | 4 (Growth inhibition rate; 71 to 90%) | 5 (Growth inhibition rate; 91 to 100%) | 5 (Growth inhibition rate; 91 to 100%) | 5 (Growth inhibition rate; 91 to 100%) | 2 (Growth inhibition rate; 31 to 50%) | 4 (Growth inhibition rate; 71 to 90%) | 0 (Growth inhibition rate; 0 to 10%) | 0 (Growth inhibition rate; 0 to 10%) |  |  |  |  |  |  |  |  |  | 
10 | Oc1cc(Cl)nnc1Oc1cccc2c1CCO2 [Example 181] | 4 (Growth inhibition rate; 71 to 90%) | 5 (Growth inhibition rate; 91 to 100%) | 3 (Growth inhibition rate; 51 to 70%) | 4 (Growth inhibition rate; 71 to 90%) | 5 (Growth inhibition rate; 91 to 100%) | 5 (Growth inhibition rate; 91 to 100%) | 1 (Growth inhibition rate; 11 to 30%) | 2 (Growth inhibition rate; 31 to 50%) | 0 (Growth inhibition rate; 0 to 10%) | 0 (Growth inhibition rate; 0 to 10%) |  |  |  |  |  |  |  |  |  | 
11 | Cc1cc(C)c(Br)c(Oc2nnc(Cl)cc2O)c1 [Example 285] | 2 (Growth inhibition rate; 31 to 50%) | 3 (Growth inhibition rate; 51 to 70%) | 4 (Growth inhibition rate; 71 to 90%) | 5 (Growth inhibition rate; 91 to 100%) | 5 (Growth inhibition rate; 91 to 100%) | 5 (Growth inhibition rate; 91 to 100%) | 0 (Growth inhibition rate; 0 to 10%) | 0 (Growth inhibition rate; 0 to 10%) | 0 (Growth inhibition rate; 0 to 10%) | 0 (Growth inhibition rate; 0 to 10%) |  |  |  |  |  |  |  |  |  | 
12 | Oc1cc(Cl)nnc1Oc1c(Br)ccc2c1CCC2 [Example 304] | 4 (Growth inhibition rate; 71 to 90%) | 5 (Growth inhibition rate; 91 to 100%) | 4 (Growth inhibition rate; 71 to 90%) | 5 (Growth inhibition rate; 91 to 100%) | 5 (Growth inhibition rate; 91 to 100%) | 5 (Growth inhibition rate; 91 to 100%) | 4 (Growth inhibition rate; 71 to 90%) | 4 (Growth inhibition rate; 71 to 90%) | 0 (Growth inhibition rate; 0 to 10%) | 0 (Growth inhibition rate; 0 to 10%) |  |  |  |  |  |  |  |  |  | 
